SMILES strings stand for the structures. In brackets after ≈: the same amount, converted by molar mass. Counter-ions that a name gives are not always drawn.

This note sets out measurements from patent US20140243302A1, “BRIDGED BICYCLIC COMPOUNDS FOR THE TREATMENT OF BACTERIAL INFECTIONS” (priority 2011, published 2014).

In the assay the test system is Staphylococcus aureus Smith. As to the kind of experiment: MIC assay, modified agar dilution (CLSI), S. aureus Smith. The class given is cell-based. Particulars: Staphylococcus aureus, agar dilution, 35° C., 16-20 hr; lowest concentration that completely inhibited growth; read-out: S_aureus_Smith_WT_MIC. The method in brief:
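Agar dilution per CLSI on Mueller Hinton agar (plus 5% horse blood for S. pneumoniae and E. faecium), compound 128 to 0.001 μg/mL in two-fold steps. Spots of ~1×10^4 CFU incubated at 35 °C for 16-20 hr before MIC scoring.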
Take `CCOC(=O)COc1ccc2ncc(F)c(CCC34CCC(NCc5ccc6c(n5)NC(=O)CO6)(CC3)CO4)c2n1` [Example 32, Ethyl 2-(7-Fluoro-8-(2-(4-((3-oxo-3,4-dihydro-2H-pyrido[3,2-b][1,4]oxazin-6-yl)methylamino)-2-oxabicyclo[2.2.2]octan-1-yl)ethyl)-1,5-naphthyridin-2-yloxy)acetate]: the MIC was determined as 0.25 µg/mL (≈ 0.442 µM).

On to `COCCOc1ccc2ncc(F)c(CCC34CCC(NCc5ccc6c(n5)NC(=O)CO6)(CC3)CO4)c2n1` [Example 33, 6-((1-(2-(3-Fluoro-6-(2-methoxyethoxy)-1,5-naphthyridin-4-yl)ethyl)-2-oxabicyclo[2.2.2]octan-4-ylamino)methyl)-2H-pyrido[3,2-b][1,4]oxazin-3(4H)-one], for which the MIC amounted to 0.063 µg/mL (≈ 0.117 µM).

With `Cl.O=C1COc2ccc(CNC34CCC(CCc5c(F)cnc6ccc(OCCO)nc56)(CC3)OC4)nc2N1` [Example 34, 6-((1-(2-(3-Fluoro-6-(2-hydroxyethoxy)-1,5-naphthyridin-4-yl)ethyl)-2-oxabicyclo[2.2.2]octan-4-ylamino)methyl)-2H-pyrido[3,2-b][1,4]oxazin-3(4H)-one Hydrochloride], the MIC was 0.031 µg/mL.

Turning to `Cl.O=C1COc2ccc(CNC34CCC(CCc5c(F)cnc6ccc(OCCCO)nc56)(CC3)OC4)nc2N1` [Example 35, 6-((1-(2-(3-Fluoro-6-(3-hydroxypropoxy)-1,5-naphthyridin-4-yl)ethyl)-2-oxabicyclo[2.2.2]octan-4-ylamino)methyl)-2H-pyrido[3,2-b][1,4]oxazin-3(4H)-one Hydrochloride], the MIC was 0.016 µg/mL.

On to `O=C1COc2ccc(CNC34CCC(CCc5c(F)cnc6ccc(OCCCCO)nc56)(CC3)OC4)nc2N1` [Example 36, 6-((1-(2-(3-Fluoro-6-(4-hydroxybutoxy)-1,5-naphthyridin-4-yl)ethyl)-2-oxabicyclo[2.2.2]octan-4-ylamino)methyl)-2H-pyrido[3,2-b][1,4]oxazin-3(4H)-one], for which the MIC worked out at 0.031 µg/mL (≈ 0.0562 µM).

`O=C1COc2ccc(CNC34CCC(CCc5c(F)cnc6ccc(OCCCCCO)nc56)(CC3)OC4)nc2N1` [Example 37, 6-((1-(2-(3-Fluoro-6-(5-hydroxypentyloxy)-1,5-naphthyridin-4-yl)ethyl)-2-oxabicyclo[2.2.2]octan-4-ylamino)methyl)-2H-pyrido[3,2-b][1,4]oxazin-3(4H)-one]: the MIC came out at 0.063 µg/mL (≈ 0.111 µM).

`NCCCOc1ccc2ncc(F)c(CCC34CCC(NCc5ccc6c(n5)NC(=O)CO6)(CC3)CO4)c2n1` [Example 38, 6-((1-(2-(6-(3-Aminopropoxy)-3-fluoro-1,5-naphthyridin-4-yl)ethyl)-2-oxabicyclo[2.2.2]octan-4-ylamino)methyl)-2H-pyrido[3,2-b][1,4]oxazin-3(4H)-one]: the MIC was found to be 0.25 µg/mL (≈ 0.466 µM).

As to `NCCCCOc1ccc2ncc(F)c(CCC34CCC(NCc5ccc6c(n5)NC(=O)CO6)(CC3)CO4)c2n1` [Example 39, 6-((1-(2-(6-(4-Aminobutoxy)-3-fluoro-1,5-naphthyridin-4-yl)ethyl)-2-oxabicyclo[2.2.2]octan-4-ylamino)methyl)-2H-pyrido[3,2-b][1,4]oxazin-3(4H)-one], the MIC is 0.5 µg/mL (≈ 0.908 µM).

For the compound `NCCOc1ccc2ncc(F)c(CCC34CCC(NCc5ccc6c(n5)NC(=O)CO6)(CC3)CO4)c2n1` [Example 40, 6-((1-(2-(6-(2-Aminoethoxy)-3-fluoro-1,5-naphthyridin-4-yl)ethyl)-2-oxabicyclo[2.2.2]octan-4-ylamino)methyl)-2H-pyrido[3,2-b][1,4]oxazin-3(4H)-one], the MIC worked out at 0.25 µg/mL (≈ 0.478 µM).

For `NCCCCCOc1ccc2ncc(F)c(CCC34CCC(NCc5ccc6c(n5)NC(=O)CO6)(CC3)CO4)c2n1` [Example 41, 6-((1-(2-(6-(5-Aminopentyloxy)-3-fluoro-1,5-naphthyridin-4-yl)ethyl)-2-oxabicyclo[2.2.2]octan-4-ylamino)methyl)-2H-pyrido[3,2-b][1,4]oxazin-3(4H)-one], the MIC came to 0.5 µg/mL (≈ 0.885 µM).

For the compound `O=C1COc2ccc(CNC34CCC(CCc5c(F)cnc6ccc(OCC7(CO)CC7)nc56)(CC3)OC4)nc2N1` [Example 42, 6-((1-(2-(3-Fluoro-6-((1-(hydroxymethyl)cyclopropyl)methoxy)-1,5-naphthyridin-4-yl)ethyl)-2-oxabicyclo[2.2.2]octan-4-ylamino)methyl)-2H-pyrido[3,2-b][1,4]oxazin-3(4H)-one], the MIC is 0.063 µg/mL (≈ 0.112 µM).

On to `NCC1(COc2ccc3ncc(F)c(CCC45CCC(NCc6ccc7c(n6)NC(=O)CO7)(CC4)CO5)c3n2)CC1` [Example 43, 6-((1-(2-(6-((1-(Aminomethyl)cyclopropyl)methoxy)-3-fluoro-1,5-naphthyridin-4-yl)ethyl)-2-oxabicyclo[2.2.2]octan-4-ylamino)methyl)-2H-pyrido[3,2-b][1,4]oxazin-3(4H)-one], for which the MIC was found to be 1 µg/mL (≈ 1.78 µM).

`COc1ccc2ncc(C#N)c(CCC34CCC(NCc5ccc6c(n5)NC(=O)CO6)(CC3)CO4)c2n1` [Example 44, 6-Methoxy-4-(2-(4-((3-oxo-3,4-dihydro-2H-pyrido[3,2-b][1,4]oxazin-6-yl)methylamino)-2-oxabicyclo[2.2.2]octan-1-yl)ethyl)-1,5-naphthyridine-3-carbonitrile]: the MIC was 0.016 µg/mL (≈ 0.032 µM).

Regarding `COc1ccc2ncc(C#N)c(CCC34CCC(NCc5cc6c(cn5)OCCO6)(CC3)CO4)c2n1` [Example 45, 4-(2-(4-((2,3-Dihydro-[1,4]dioxino[2,3-c]pyridin-7-yl)methylamino)-2-oxabicyclo[2.2.2]octan-1-yl)ethyl)-6-methoxy-1,5-naphthyridine-3-carbonitrile Hydrochloride], the MIC amounted to 0.031 µg/mL.

As for `COc1ccc2ncc(C#N)c(CCC34CCC(NCc5cc6ccccc6n(C)c5=O)(CC3)CO4)c2n1.Cl` [Example 46, 6-Methoxy-4-(2-(4-((1-methyl-2-oxo-1,2-dihydroquinolin-3-yl)methylamino)-2-oxabicyclo[2.2.2]octan-1-yl)ethyl)-1,5-naphthyridine-3-carbonitrile Hydrochloride], the MIC turned out to be 2 µg/mL.

For `CON=C1COc2ccc(CNC34CCC(CCc5c(F)cnc6ccc(OC)nc56)(CC3)OC4)nc2N1` [Example 47, 6-((1-(2-(3-Fluoro-6-methoxy-1,5-naphthyridin-4-yl)ethyl)-2-oxabicyclo[2.2.2]octan-4-ylamino)methyl)-2H-pyrido[3,2-b][1,4]oxazin-3(4H)-one O-Methyl Oxime], the MIC turned out to be 2 µg/mL (≈ 3.83 µM).

With `COc1ccc2ncc(F)c(CCC34CCC(NCc5ccc6c(n5)NC(=NO)CO6)(CC3)CO4)c2n1` [Example 48, 6-((1-(2-(3-Fluoro-6-methoxy-1,5-naphthyridin-4-yl)ethyl)-2-oxabicyclo[2.2.2]octan-4-ylamino)methyl)-2H-pyrido[3,2-b][1,4]oxazin-3(4H)-one Oxime], the MIC worked out at 2 µg/mL (≈ 3.93 µM).

Regarding `COc1ccc2c(n1)c(CCC13CCC(NCc4ccc5c(n4)NC(=O)CO5)(CC1)CO3)cc(=O)n2C` [Example 49, 6-(((1-(2-(6-Methoxy-1-methyl-2-oxo-1,2-dihydro-1,5-naphthyridin-4-yl)ethyl)-2-oxabicyclo[2.2.2]octan-4-yl)amino)methyl)-2H-pyrido[3,2-b][1,4]oxazin-3(4H)-one], the MIC was determined as 1 µg/mL (≈ 1.98 µM).

`COc1ccc2ncc(OC)c(CCC34CCC(NCc5ccc6c(n5)NC(=O)CO6)(CC3)CO4)c2n1` [Example 50, 6-[({1-[2-(3,6-Dimethoxy-1,5-naphthyridin-4-yl)ethyl]-2-oxabicyclo[2.2.2]oct-4-yl}amino)methyl]-2H-pyrido[3,2-b][1,4]oxazin-3(4H)-one]: the MIC came out at 0.125 µg/mL (≈ 0.247 µM).

In the case of `COc1ccc2ncc(Cl)c(CCC34CCC(NCc5ccc6c(c5)NC(=O)CO6)(CC3)CC4)c2n1` [Example 56, 6-((4-(2-(3-Chloro-6-methoxy-1,5-naphthyridin-4-yl)ethyl)bicyclo[2.2.2]octan-1-ylamino)methyl)-2H-benzo[b][1,4]oxazin-3(4H)-one], the MIC was 0.031 µg/mL (≈ 0.0611 µM).

Turning to `COc1ccc2nc(CNC34CCC(CCc5c(Cl)cnc6ccc(OC)nc56)(CC3)CC4)ccc2c1` [Example 57, 4-(2-(3-Chloro-6-methoxy-1,5-naphthyridin-4-yl)ethyl)-N-((6-methoxyquinolin-2-yl)methyl)bicyclo[2.2.2]octan-1-amine], the MIC was 4 µg/mL (≈ 7.74 µM).

`COc1ccc2ncc(Cl)c(CCC34CCC(NCc5ccc6cccnc6n5)(CC3)CC4)c2n1` [Example 58, N-((1,8-Naphthyridin-2-yl)methyl)-4-(2-(3-chloro-6-methoxy-1,5-naphthyridin-4-yl)ethyl)bicyclo[2.2.2]octan-1-amine]: the MIC amounted to 0.125 µg/mL (≈ 0.256 µM).

As to `COc1ccc2ncc(F)c(CCC34CCC(NCc5ccc(C)c(F)c5)(CC3)CO4)c2n1` [Example 59, N-(3-Fluoro-4-methylbenzyl)-1-(2-(3-fluoro-6-methoxy-1,5-naphthyridin-4-yl)ethyl)-2-oxabicyclo[2.2.2]octan-4-amine], the MIC is 0.016 µg/mL (≈ 0.0353 µM).

For the compound `COc1ccc2ncc(F)c(CCC34CCC(NCc5cccc(C#N)n5)(CC3)CO4)c2n1` [Example 60, 6-(((1-(2-(3-Fluoro-6-methoxy-1,5-naphthyridin-4-yl)ethyl)-2-oxabicyclo[2.2.2]octan-4-yl)amino)methyl)picolinonitrile], the MIC came out at 8 µg/mL (≈ 17.9 µM).

For the compound `COc1ccc2ncc(F)c(CCC34CCC(NCc5cc6c(cn5)OCCO6)(CC3)CO4)c2n1` [Example 61, N-((2,3-Dihydro-[1,4]dioxino[2,3-c]pyridin-7-yl)methyl)-1-(2-(3-fluoro-6-methoxy-1,5-naphthyridin-4-yl)ethyl)-2-oxabicyclo[2.2.2]octan-4-amine], the MIC was determined as 0.063 µg/mL (≈ 0.131 µM).

Take `COc1ccc2ncc(F)c(CCC34CCC(NCc5cc(OC)c(OC)cn5)(CC3)CO4)c2n1` [Example 62, N-((4,5-Dimethoxypyridin-2-yl)methyl)-1-(2-(3-fluoro-6-methoxy-1,5-naphthyridin-4-yl)ethyl)-2-oxabicyclo[2.2.2]octan-4-amine]: the MIC was found to be 4 µg/mL (≈ 8.29 µM).

Regarding `COc1ccc2ncc(F)c(CCC34CCC(NCc5ccc(N6CCCC6)cn5)(CC3)CO4)c2n1` [Example 63, 1-(2-(3-Fluoro-6-methoxy-1,5-naphthyridin-4-yl)ethyl)-N-((5-(pyrrolidin-1-yl)pyridin-2-yl)methyl)-2-oxabicyclo[2.2.2]octan-4-amine], the MIC amounted to 0.25 µg/mL (≈ 0.509 µM).
